Results taken from patent publication EP2812315B1, “PYRROLIC DERIVATIVES, PROCESSES FOR PREPARING THE SAME AND THEIR USES AS A DRUG” (Universite Joseph Fourier, priority 2012, dated 2013).
Values after ≈ are worked out from the molar mass of the structure shown.

What was measured:
Format in all cases: cell-based
[1] = tested on: Staphylococcus epidermidis CIP 81.55; test: MIC determination, microdilution method (CLSI M07-A8); settings: CIP81, 5 x 10^5 CFU/mL, 18 hours incubation
How it was run: (§1)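 CLSI M07-A8 microdilution; MH broth; 5 x 10^5 CFU/mL; 0.25-64 mg/L, 2-fold; 37°C, 18 h; H. influenzae: +10% sheep blood, 5% CO2. Endpoint: complete visual growth inhibition.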

[2] = tested on: Staphylococcus aureus CIP 65.25 (MRSA); test: as above; settings: 5 x 10^5 CFU/mL, 18 hours incubation
How it was run: as §1

[3] = tested on: Staphylococcus aureus ATCC 33592 (MRSA); test: as above; settings: 5 x 10^5 CFU/mL, 18 hours incubation
How it was run: as §1

[4] = tested on: Staphylococcus epidermidis CIP 103627; test: as above; settings: CIP103627, 5 x 10^5 CFU/mL, 18 hours incubation
How it was run: as §1

[5] = tested on: Staphylococcus aureus ATCC 106414 (VISA); test: as above; settings: 5 x 10^5 CFU/mL, 18 hours incubation
How it was run: as §1

[6] = tested on: Staphylococcus aureus CIP 65.6; test: as above; settings: CIP65, 5 x 10^5 CFU/mL, 18 hours incubation
How it was run: as §1

[7] = tested on: Staphylococcus aureus CIP 103428; test: as above; settings: CIP103428, 5 x 10^5 CFU/mL, 18 hours incubation
How it was run: as §1

[8] = tested on: Staphylococcus aureus ATCC 6538; test: as above; settings: ATCC6538, 5 x 10^5 CFU/mL, 18 hours incubation
How it was run: as §1

[9] = tested on: Staphylococcus aureus ATCC 9144; test: as above; settings: ATCC9144, 5 x 10^5 CFU/mL, 18 hours incubation
How it was run: as §1

[10] = tested on: Staphylococcus aureus MSSA 476 CNR HT 2006 0437; test: Determination of the minimum bactericidal concentration (MBC), macro-method; settings: 18 hours incubation, initial bacterial load 7,70E+05
Description: (§2) The MBC against two different strains of Staphylococcus aureus, one susceptible to methicillin (MSSA 476 CNR HT 2006 0437) and one resistant to methicillin (MRSA 252 CNR HT 2006 0436) obtained from Centre National de Reference des Staphylocoques (Lyon, France) were determined using a macro-method. Sterile tubes were filled with a primary bacterial inoculum prepared in Mueller Hinton broth as above (10^6 CFU/ml of final inoculum) and pyrrolic compounds were added at twofold serial concentrations (0.5-128 mg/L of final concentrations for 3h and 3i and 0.0625-128mg/L of final concentration for 3n). After 18 hours incubation of cultures, ten-fold serial dilutions of the cultures with no visible bacterial growth and of the first tube showing visible bacterial growth were prepared. Then 100µl of each dilution were inoculated to Mueller Hinton agar media for 24-48 hours. CFU counts were then determined and the MBC corresponded to the minimal pyrrolic compound concentration for which 99.9% of more bacterial cells were killed after 18 hours of incubation.
(§3) However, this reduction was only 1-2 log CFU/ml, and thus MBC could not be determined (tables VI and VII). Table VI: MBC against Staphylococcus aureus MRSA 252 CNR HT 2006 0436

[11] = tested on: Staphylococcus aureus MRSA 252 CNR HT 2006 0436; test: as above; settings: 18 hours incubation, initial bacterial load 9500000
Description: as §2, §3

SMILES	MIC [1]	MIC [2]	MIC [3]	MIC [4]	MIC [5]	MIC [6]	MIC [7]	MIC [8]	MIC [9]	CFU counts (bacterial load) ([10]; concentration 2 mg/L)	CFU counts (bacterial load) ([10]; concentration 4 mg/L)	CFU counts (bacterial load) ([10]; concentration 16 mg/L)	CFU counts (bacterial load) ([10]; concentration 32 mg/L)	CFU counts (bacterial load) ([10]; concentration 64 mg/L)	CFU counts (bacterial load) ([10]; concentration 128 mg/L)	CFU counts (bacterial load) ([11]; concentration 0,5 mg/L)	CFU counts (bacterial load) ([11]; concentration 1 mg/L)	CFU counts (bacterial load) ([11]; concentration 2 mg/L)	CFU counts (bacterial load) ([11]; concentration 4 mg/L)	CFU counts (bacterial load) ([11]; concentration 8 mg/L)	other results
CC(=O)c1c(C)[nH]c(C(c2[nH]c(C)c(C(C)=O)c2C)c2cccc3ccccc23)c1C [3h]	> 128 µg/mL	1 µg/mL (≈ 2.42 µM)	1 µg/mL (≈ 2.42 µM)	> 128 µg/mL	1 µg/mL (≈ 2.42 µM)	1 µg/mL (≈ 2.42 µM)	1 µg/mL (≈ 2.42 µM)	1 µg/mL (≈ 2.42 µM)	8 µg/mL (≈ 19.4 µM)	1,63E+08 CFU/ml	3,20E+05 CFU/ml	3,20E+05 CFU/ml	3,70E+05 CFU/ml	3,90E+05 CFU/ml	4,30E+05 CFU/ml	2,10E+08 CFU/ml	7,50E+07 CFU/ml	5,60E+05 CFU/ml	5,50E+05 CFU/ml	2,40E+05 CFU/ml	CFU counts (bacterial load) ([10]; concentration 8 mg/L): 3,34E+05 CFU/ml; CFU counts (bacterial load) ([11]; concentration 16 mg/L): 3,20E+05 CFU/ml; CFU counts (bacterial load) ([11]; concentration 32 mg/L): 4,20E+05 CFU/ml; CFU counts (bacterial load) ([11]; concentration 64 mg/L): 5,59E+05 CFU/ml; CFU counts (bacterial load) ([11]; concentration 128 mg/L): 6,28E+05 CFU/ml
CC(=O)c1c(C)[nH]c(C(c2[nH]c(C)c(C(C)=O)c2C)c2csc3ccc(Br)cc23)c1C [3n]	–	–	–	–	–	–	–	–	–	2,70E+05 CFU/ml	2,71E+05 CFU/ml	4,41E+05 CFU/ml	4,47E+05 CFU/ml	4,50E+05 CFU/ml	3,50E+05 CFU/ml	2,90E+05 CFU/ml	3,00E+05 CFU/ml	4,20E+05 CFU/ml	4,20E+05 CFU/ml	3,40E+05 CFU/ml	CFU counts (bacterial load) ([10]; concentration 0,5 mg/L): 2,78E+05 CFU/ml; CFU counts (bacterial load) ([10]; concentration 0,25 mg/L): 2,10E+06 CFU/ml; CFU counts (bacterial load) ([10]; concentration 1 mg/L): 1,76E+05 CFU/ml; CFU counts (bacterial load) ([10]; concentration 0,125 mg/L): 8,00E+07 CFU/ml; CFU counts (bacterial load) ([10]; concentration 0,0625 mg/L): 2,15E+08 CFU/ml; CFU counts (bacterial load) ([11]; concentration 0,25 mg/L): 2,80E+05 CFU/ml; CFU counts (bacterial load) ([11]; concentration 16 mg/L): 3,80E+05 CFU/ml; CFU counts (bacterial load) ([11]; concentration 0,125 mg/L): 1,00E+06 CFU/ml; CFU counts (bacterial load) ([11]; concentration 0,0625 mg/L): 2,90E+07 CFU/ml
CC(=O)c1c(C)[nH]c(C(c2cc3ccccc3s2)c2[nH]c(C)c(C(C)=O)c2C)c1C [3f]	> 128 µg/mL	2 µg/mL (≈ 4.78 µM)	8 µg/mL (≈ 19.1 µM)	> 128 µg/mL	2 µg/mL (≈ 4.78 µM)	2 µg/mL (≈ 4.78 µM)	2 µg/mL (≈ 4.78 µM)	2 µg/mL (≈ 4.78 µM)	2 µg/mL (≈ 4.78 µM)	–	–	–	–	–	–	–	–	–	–	–	–
CC(=O)c1c(C)[nH]c(C(c2[nH]c(C)c(C(C)=O)c2C)c2csc3ccccc23)c1C [3i]	> 128 µg/mL	1 µg/mL (≈ 2.39 µM)	0.5 µg/mL (≈ 1.19 µM)	> 128 µg/mL	0.5 µg/mL (≈ 1.19 µM)	0.5 µg/mL (≈ 1.19 µM)	0.5 µg/mL (≈ 1.19 µM)	0.5 µg/mL (≈ 1.19 µM)	1 µg/mL (≈ 2.39 µM)	3,55E+06 CFU/ml	2,72E+05 CFU/ml	3,51E+05 CFU/ml	3,41E+05 CFU/ml	3,21 E+05 CFU/ml	1,47E+06 CFU/ml	4,70E+07 CFU/ml	5,20E+05 CFU/ml	2,40E+05 CFU/ml	5,60E+05 CFU/ml	2,80E+05 CFU/ml	CFU counts (bacterial load) ([10]; concentration 0,5 mg/L): 1,46E+08 CFU/ml; CFU counts (bacterial load) ([10]; concentration 1 mg/L): 6,00E+07 CFU/ml; CFU counts (bacterial load) ([10]; concentration 8 mg/L): 3,01E+05 CFU/ml; CFU counts (bacterial load) ([11]; concentration 16 mg/L): 2,80E+05 CFU/ml; CFU counts (bacterial load) ([11]; concentration 32 mg/L): 5,00E+05 CFU/ml; CFU counts (bacterial load) ([11]; concentration 64 mg/L): 4,80E+05 CFU/ml; CFU counts (bacterial load) ([11]; concentration 128 mg/L): 1,00E+06 CFU/ml
CC(=O)c1c(C)[nH]c(C(c2cc3ccccc3o2)c2[nH]c(C)c(C(C)=O)c2C)c1C [3e]	> 128 µg/mL	2 µg/mL (≈ 4.97 µM)	4 µg/mL (≈ 9.94 µM)	> 128 µg/mL	4 µg/mL (≈ 9.94 µM)	4 µg/mL (≈ 9.94 µM)	4 µg/mL (≈ 9.94 µM)	4 µg/mL (≈ 9.94 µM)	4 µg/mL (≈ 9.94 µM)	–	–	–	–	–	–	–	–	–	–	–	–
CC(=O)c1c(C)[nH]c(C(c2ccc(Cl)cc2)c2[nH]c(C)c(C(C)=O)c2C)c1C [3c]	> 128 µg/mL	2 µg/mL (≈ 5.04 µM)	4 µg/mL (≈ 10.1 µM)	> 128 µg/mL	2 µg/mL (≈ 5.04 µM)	4 µg/mL (≈ 10.1 µM)	8 µg/mL (≈ 20.2 µM)	2 µg/mL (≈ 5.04 µM)	4 µg/mL (≈ 10.1 µM)	–	–	–	–	–	–	–	–	–	–	–	–
